According to ChEMBL document CHEMBL5029185, “Discovery of Novel Polycyclic Heterocyclic Derivatives from Evodiamine for the Potential Treatment of Triple-Negative Breast Cancer” (J Med Chem, 2021):
The source made the active and inactive calls. The rule behind the calls is not given here.

How the values were obtained:
HepG2 = test: Antiproliferative activity against human HepG2 cells assessed as inhibition rate incubated for 72 hrs by MTT assay; assay type: functional, cell-based; conditions: HepG2, 72 h
MDA-MB-231 [1] = test: Inhibition of PI3K in human MDA-MB-231 cells assessed as Akt phosphorylation at 0.4 uM measured after 48 hrs by Western blot analysis; assay type: cell-based
MCF7 = test: Antiproliferative activity against human MCF7 cells assessed as inhibition rate incubated for 72 hrs by MTT assay; assay type: functional, cell-based; conditions: MCF7, 72 h
[2] = Ratio of IC50 for antiproliferative activity against human MDA-MB-231 cells transfected with siRNA-Top1 to IC50 for antiproliferative activity against human MDA-MB-231 cells transfected with siRNA-Ctrl assessed as cell viability by MTT assay; assay type: functional
MDA-MB-231 [3] = test: Induction of apoptosis in human MDA-MB-231 cells assessed as increase in cleaved PARP level at 0.4 uM incubated for 48 hrs by Western blot analysis; assay type: functional, cell-based
MDA-MB-231 [4] = test: Antiproliferative activity against human MDA-MB-231 cells transfected with siRNA-Top1 assessed as cell viability by MTT assay; assay type: functional, cell-based
MDA-MB-231 [5] = test: Induction of apoptosis in human MDA-MB-231 cells assessed as decrease in Bcl-2 expression at 0.1 to 0.4 uM measured after 48 hrs by Western blot analysis; assay type: functional, cell-based; conditions: dose 0.1-0.4 µM
MDA-MB-231 [6] = test: Induction of apoptosis in human MDA-MB-231 cells assessed as increase in Bax expression at 0.1 to 0.4 uM measured after 48 hrs by Western blot analysis; assay type: functional, cell-based; conditions: dose 0.1-0.4 µM
MDA-MB-231 [7] = test: Induction cell cycle arrest in human MDA-MB-231 cells assessed as accumulation at G2 phase at 0.4 uM measured after 48 hrs by PI staining based flow cytometry (reference value: 10.2%); assay type: functional
A549 = test: Antiproliferative activity against human A549 cells assessed as inhibition rate incubated for 72 hrs by MTT assay; assay type: functional, cell-based; conditions: A549, 72 h
Breast carcinoma cell [8] = test: Antitumour activity against human TNBC breast carcinoma cell tissue xenografted PDTX SCID mouse model assessed as reduction in Ki67 expression level at 5 to 20 mg/kg treated for 7 days by immunohistochemical analysis; assay type: functional, organism-based; conditions: dose 5-20 mg/kg, time 7.0 day
HEK293 = test: cells; assay type: ADME, cell-based; conditions: Homo sapiens, HEK293, 72 h
Description: Antiproliferative activity against HEK293 cells assessed as inhibition rate incubated for 72 hrs by MTT assay

MDA-MB-231 [9] = test: Inhibition of PI3K phosphorylation in human MDA-MB-231 cells at 0.4 uM measured after 48 hrs by Western blot analysis; assay type: cell-based
MDA-MB-231 [10] = test: Antiproliferative activity against human MDA-MB-231 cells assessed as inhibition rate incubated for 72 hrs by MTT assay; assay type: functional, cell-based; conditions: MDA-MB-231, 72 h
MDA-MB-231 [11] = test: Antiproliferative activity against human MDA-MB-231 cells assessed as inhibition rate at 10 uM incubated for 72 hrs by MTT assay; assay type: functional
[12] = biological target: T1, DNA topoisomerase 1 (Homo sapiens) (UniProt P11387); test: Inhibition of topoisomerase 1 (unknown origin) assessed as relaxation of supercoiled plasmid pBR322 DNA upto 500 uM incubated for 15 mins by agarose gel electrophoresis; conditions: dose microM <=500, time 15.0 min
T1 sequence (whole entry): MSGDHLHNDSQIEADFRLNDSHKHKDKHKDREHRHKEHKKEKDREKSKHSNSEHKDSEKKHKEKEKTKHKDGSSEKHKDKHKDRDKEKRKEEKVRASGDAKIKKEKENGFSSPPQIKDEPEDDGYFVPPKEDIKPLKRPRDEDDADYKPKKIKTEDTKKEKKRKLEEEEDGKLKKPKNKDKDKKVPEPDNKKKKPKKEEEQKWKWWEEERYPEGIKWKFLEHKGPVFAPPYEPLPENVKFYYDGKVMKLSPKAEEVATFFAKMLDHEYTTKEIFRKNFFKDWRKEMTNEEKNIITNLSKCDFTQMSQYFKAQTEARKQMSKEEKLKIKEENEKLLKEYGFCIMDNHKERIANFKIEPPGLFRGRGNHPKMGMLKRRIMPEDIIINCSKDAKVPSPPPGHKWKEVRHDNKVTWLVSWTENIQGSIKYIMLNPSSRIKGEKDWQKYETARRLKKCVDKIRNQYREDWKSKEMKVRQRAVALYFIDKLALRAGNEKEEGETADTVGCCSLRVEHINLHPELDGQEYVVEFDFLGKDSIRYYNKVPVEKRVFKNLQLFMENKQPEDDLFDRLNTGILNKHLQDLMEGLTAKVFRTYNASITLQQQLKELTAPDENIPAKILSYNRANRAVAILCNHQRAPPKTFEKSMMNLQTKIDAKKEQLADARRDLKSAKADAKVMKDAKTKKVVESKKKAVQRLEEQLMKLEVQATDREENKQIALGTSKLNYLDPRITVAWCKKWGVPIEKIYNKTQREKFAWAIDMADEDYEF

MDA-MB-231 [13] = test: Induction of mitochondrial membrane disruption in human MDA-MB-231 cells assessed as mitochondrial dysfunction at 0.2 uM measured after 48 hrs by JC-1 staining based flow cytometry (reference value: 3%); assay type: functional
MDA-MB-231 [14] = test: Induction cell cycle arrest in human MDA-MB-231 cells assessed as accumulation at G1 phase at 0.1 uM measured after 48 hrs by PI staining based flow cytometry (reference value: 53.7%); assay type: functional
MDA-MB-231 [15] = test: Induction cell cycle arrest in human MDA-MB-231 cells assessed as increase in p53 expression at 0.4 uM measured after 48 hrs by Western blot analysis; assay type: functional, cell-based
MDA-MB-231 [16] = test: Induction of mitochondrial membrane disruption in human MDA-MB-231 cells assessed as mitochondrial dysfunction at 0.1 uM measured after 48 hrs by JC-1 staining based flow cytometry (reference value: 3%); assay type: functional
MDA-MB-231 [17] = test: Induction of apoptosis in human MDA-MB-231 cells assessed as changes in cell morphology and nuclei at 0.1 to 0.4 uM by Hoechst 33342 staining based fluorescence microscopy; assay type: functional; conditions: dose 0.1-0.4 µM
[18] = biological target: T1, DNA topoisomerase 1 (Homo sapiens); test: Induction of topoisomerase 1-DNA cleavable complex in human MDA-MB-231 cells assessed as increase in cleavable complex by measuring SDS-K+ precipitable complex at 15 uM measured up to 15 hrs by liquid scintillation counting analysis; assay type: cell-based; conditions: time hrs <=15
MDA-MB-231 [19] = test: Induction cell cycle arrest in human MDA-MB-231 cells assessed as accumulation at G1 phase at 0.2 uM measured after 48 hrs by PI staining based flow cytometry (reference value: 53.7%); assay type: functional
Breast carcinoma cell [20] = test: Antitumour activity against human TNBC breast carcinoma cell tissue xenografted PDTX SCID mouse model assessed as reduction in cancer cell density at 5 to 20 mg/kg treated for 7 days; assay type: functional, organism-based; conditions: dose 5-20 mg/kg, time 7.0 day
LoVo = test: Antiproliferative activity against human LoVo cells assessed as inhibition rate incubated for 72 hrs by MTT assay; assay type: functional, cell-based
[21] = biological target: T1, DNA topoisomerase 1 (Homo sapiens); test: Induction of topoisomerase 1-DNA cleavable complex in human MDA-MB-231 cells assessed as decrease in free Top1 in nuclear extract at 30 uM measured up to 9 hrs by Immunoband depletion assay; assay type: cell-based; conditions: time hrs <=9
[22] = Selectivity index, ratio of IC50 for human MCF-10A cells to IC50 for human MDA-MB-231 cells; conditions: MCF-10A cells versus MDA-MB-231 cells

O=C1c2cc(Cl)ccc2OC2c3oc4ccc(O)cc4c3CCN12 (configuration not stated)
IC50 (HepG2): 4.65 µM | inhibition (MDA-MB-231 [1]): Active | IC50 (MCF7): 0.62 µM | Ratio IC50 [2]: 12.7 | Activity (MDA-MB-231 [3]): Active | IC50 (MDA-MB-231 [4]): 9.7 µM | Activity (MDA-MB-231 [5]): Active | Activity (MDA-MB-231 [6]): Active | Activity (MDA-MB-231 [7]): 6.9% | IC50 (A549): 5.24 µM | Activity (Breast carcinoma cell [8]): Active | IC50 (HEK293): 35.5 µM | inhibition (MDA-MB-231 [9]): Active | IC50 (MDA-MB-231 [10]): 0.36 µM | inhibition at 10 µM (MDA-MB-231 [11]): 84.3% | Activity [12]: inactive | Activity (MDA-MB-231 [13]): 18.5% | Activity (MDA-MB-231 [14]): 68.1% | Activity (MDA-MB-231 [15]): Active | Activity (MDA-MB-231 [16]): 12.2% | Activity (MDA-MB-231 [17]): Active | Activity [18]: Active | Activity (MDA-MB-231 [19]): 72.3% | Activity (Breast carcinoma cell [20]): Active | IC50 (LoVo): 7.31 µM | Activity [21]: Active | selectivity ratio [22]: 18.8
